Earlier results, collected in US7947458B1, “Placental human neurokinin B precursor” (Perinatal Diagnostics Limited, priority 1999, dated 2011).
Read-outs that look alike come from different tables or passages of the source. Each block holds one compound with its values, some of them ahead of it. Ends that are not written are not given here.

Tests used:
[1] = intravenous infusion, rats
[2] = intravenous injections, guinea pigs
[3] = target: T1, NK3 receptor (Homo sapiens, UniProt P29371)
T1 sequence (P29371 1-465): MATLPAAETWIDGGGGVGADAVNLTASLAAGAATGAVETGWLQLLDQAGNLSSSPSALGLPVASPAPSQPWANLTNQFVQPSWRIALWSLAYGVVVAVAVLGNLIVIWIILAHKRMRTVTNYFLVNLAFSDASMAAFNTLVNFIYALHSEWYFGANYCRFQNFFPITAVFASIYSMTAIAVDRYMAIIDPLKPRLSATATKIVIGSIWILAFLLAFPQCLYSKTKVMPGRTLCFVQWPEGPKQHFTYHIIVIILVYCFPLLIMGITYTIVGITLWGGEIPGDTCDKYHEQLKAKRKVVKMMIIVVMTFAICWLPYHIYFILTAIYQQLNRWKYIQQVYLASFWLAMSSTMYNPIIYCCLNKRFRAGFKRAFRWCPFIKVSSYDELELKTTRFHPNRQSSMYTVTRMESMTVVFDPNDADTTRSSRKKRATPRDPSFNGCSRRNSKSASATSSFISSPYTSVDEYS

[4] = system: hepatic portal vein
[5] = system: mesenteric vascular bed
[6] = dog, in vivo
[7] = target: T2, NK2 receptors (Homo sapiens, UniProt P21452)
T2 sequence (P21452 1-398): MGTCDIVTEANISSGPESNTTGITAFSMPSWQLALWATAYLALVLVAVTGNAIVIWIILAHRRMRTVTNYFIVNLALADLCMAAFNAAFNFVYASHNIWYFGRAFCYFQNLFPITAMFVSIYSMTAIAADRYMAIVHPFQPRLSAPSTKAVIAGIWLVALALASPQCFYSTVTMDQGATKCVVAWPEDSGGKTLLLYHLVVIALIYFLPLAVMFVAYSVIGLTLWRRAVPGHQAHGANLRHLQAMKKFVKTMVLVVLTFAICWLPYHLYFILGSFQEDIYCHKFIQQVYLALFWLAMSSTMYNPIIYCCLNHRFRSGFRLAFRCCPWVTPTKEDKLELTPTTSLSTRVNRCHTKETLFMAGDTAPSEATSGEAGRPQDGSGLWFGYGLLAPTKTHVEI

[8] = target: NK1 receptor (Homo sapiens, UniProt P25103)
Sequence of NK1 receptor (P25103 whole entry, species assumed): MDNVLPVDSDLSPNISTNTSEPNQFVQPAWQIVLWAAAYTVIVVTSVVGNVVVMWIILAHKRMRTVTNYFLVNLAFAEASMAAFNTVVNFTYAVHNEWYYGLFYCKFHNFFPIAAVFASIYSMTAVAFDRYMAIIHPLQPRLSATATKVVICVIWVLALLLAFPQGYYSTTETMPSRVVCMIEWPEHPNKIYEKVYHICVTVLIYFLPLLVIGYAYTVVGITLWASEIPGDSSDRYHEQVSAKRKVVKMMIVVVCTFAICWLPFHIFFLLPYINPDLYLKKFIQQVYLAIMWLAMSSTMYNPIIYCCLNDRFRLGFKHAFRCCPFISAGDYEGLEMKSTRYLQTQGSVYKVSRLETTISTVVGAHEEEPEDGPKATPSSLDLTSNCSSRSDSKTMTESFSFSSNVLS

Compound: neurokinin A (HKTDSFVGLM-NH2; ends and bridges not checked; UniProt P20366 98-107, looked up) [substance K, tachykinin designated substance K or neurokinin A]
effect on heart rate [6]: slow down the heart rate

Compound: substance P (RPKPQQFFGLM-NH2; ends and bridges not checked; UniProt P20366 58-68, looked up)
effect on heart rate [6]: slow down the heart rate

Compound: CC(=O)NC1(c2ccccc2)CCN(CC[C@H](CN(C)C(=O)c2ccccc2)c2ccc(Cl)c(Cl)c2)CC1 [SR 48968]
affinity and selectivity for NK2 receptors [7]: high affinity and selectivity

The next lines start with results.

potency rank among tachykinins at the NK3 receptor [3]: most potent member of the family
Compound: neurokinin B [NKB]
effect on blood pressure [1]: increase in blood pressure
effect on blood pressure [2]: dose related hypertension
contraction, potency rank among neurokinins [4]: most potent neurokinin
vasoconstriction, potency rank among neurokinins [5]: most potent neurokinin to cause vasoconstriction

affinity for the NK1 receptor [8]: high affinity
Compound: CN(Cc1ccccc1)C(=O)[C@H](Cc1ccc2ccccc2c1)NC(=O)[C@@H]1C[C@@H](O)CN1C(=O)c1cn(C)c2ccccc12 [FK 888]
